In patent US6472408B1, “Dimeric compounds” (priority 2000, dated 2002):
Structures can show the parent of a compound that is named as a salt. Where two headings read alike, the source gives them in different places.

Key:
BChE = biological target: T1, BChE (Rattus norvegicus, UniProt Q9JKC1); assay: biochemical; details: for IC50: rat serum
T1 construct: Rat serum was obtained by centrifugation of blood; from tissue; host or cells: rat serum
Method: (§1) AChE and BChE enzyme preparations were prepared from cortex and serum respectively of decapitated rats. Frontal cortex (brain dissected on ice) was homogenized in sodium phosphate buffer (39 vol. 75 mM, pH 7.4). Rat serum was obtained by centrifugation of blood (3500×g, 10 min.). The cholinesterase assays were performed using the cloroimetric method of Ellman, with minor modification. […] A mixture of 4 mL containing acetylthiocholine iodide (0.3 mM) or butrylthiocholine iodide (0.4 mM), I mL sodium phosphate buffer ([…], pH 7.4), a solution of the compound being tested (0.1 mL), and homogenate or serum (0.1 mL) was incubated at 37° C. for 8 minutes. The reaction was terminated by the addition of sodium dodecyl sulfate (3% w/v, 1 mL), after which the 5,5′-dithiobis-(2-nitrobenzoic acid) indicator (0.2% w/v, 1 mL) was added. Enzyme activity was determined by measuring the absorbance at 420 nm after 10 minutes, relative to the drug-free control.

AChE = biological target: T2, AChE (Rattus norvegicus, UniProt P37136); assay: biochemical; details: for Selectivity for AChE: IC50(BChE)/IC50(AChE)
T2 construct: Frontal cortex (brain dissected on ice) was homogenized in sodium phosphate buffer; from tissue; host or cells: rat frontal cortex homogenate
T2 sequence (P37136 32-614): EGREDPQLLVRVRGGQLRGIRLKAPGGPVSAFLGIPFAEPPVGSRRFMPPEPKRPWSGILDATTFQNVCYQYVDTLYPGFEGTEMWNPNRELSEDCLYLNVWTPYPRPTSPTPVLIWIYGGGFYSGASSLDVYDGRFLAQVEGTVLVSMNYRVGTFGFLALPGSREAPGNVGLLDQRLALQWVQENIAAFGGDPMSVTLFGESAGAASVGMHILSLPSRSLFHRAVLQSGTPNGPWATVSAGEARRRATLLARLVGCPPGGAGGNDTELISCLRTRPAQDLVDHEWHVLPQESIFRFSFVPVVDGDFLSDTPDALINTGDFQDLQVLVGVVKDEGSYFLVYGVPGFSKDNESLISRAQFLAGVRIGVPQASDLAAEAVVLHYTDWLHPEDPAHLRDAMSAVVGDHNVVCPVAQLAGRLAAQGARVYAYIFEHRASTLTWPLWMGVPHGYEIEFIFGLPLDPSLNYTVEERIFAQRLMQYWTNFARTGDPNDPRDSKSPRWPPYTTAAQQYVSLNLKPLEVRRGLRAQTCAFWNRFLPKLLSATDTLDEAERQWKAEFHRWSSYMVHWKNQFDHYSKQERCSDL
Method: as §1, with “Rat” for “AChE and BChE enzyme preparations were prepared from cortex and serum respectively of decapitated rats. Frontal cortex (brain dissected on ice) was homogenized in sodium phosphate buffer (39 vol. 75 mM, pH 7.4). Rat”

[1] = Table II, in the presence of BW284c51 as a specific AChE inhibitor, drugs assayed as salts
[2] = at 0.5 mM, the highest drug concentration tested
[3] = Table II, rat cortex homogenate, in the presence of ethopropazine as a specific BChE inhibitor, drugs assayed as hydrochloride or fumaric acid salts, read-out: AchE IC50
[4] = Table III, in the presence of BW284c51, drugs 13 assayed as hydrochloride salts
[5] = Table III, rat cornea homogenate, in the presence of ethopropazine, drugs 13 assayed as hydrochloride salts, read-out: AChE IC50

T1 sequence (Q9JKC1 24-597): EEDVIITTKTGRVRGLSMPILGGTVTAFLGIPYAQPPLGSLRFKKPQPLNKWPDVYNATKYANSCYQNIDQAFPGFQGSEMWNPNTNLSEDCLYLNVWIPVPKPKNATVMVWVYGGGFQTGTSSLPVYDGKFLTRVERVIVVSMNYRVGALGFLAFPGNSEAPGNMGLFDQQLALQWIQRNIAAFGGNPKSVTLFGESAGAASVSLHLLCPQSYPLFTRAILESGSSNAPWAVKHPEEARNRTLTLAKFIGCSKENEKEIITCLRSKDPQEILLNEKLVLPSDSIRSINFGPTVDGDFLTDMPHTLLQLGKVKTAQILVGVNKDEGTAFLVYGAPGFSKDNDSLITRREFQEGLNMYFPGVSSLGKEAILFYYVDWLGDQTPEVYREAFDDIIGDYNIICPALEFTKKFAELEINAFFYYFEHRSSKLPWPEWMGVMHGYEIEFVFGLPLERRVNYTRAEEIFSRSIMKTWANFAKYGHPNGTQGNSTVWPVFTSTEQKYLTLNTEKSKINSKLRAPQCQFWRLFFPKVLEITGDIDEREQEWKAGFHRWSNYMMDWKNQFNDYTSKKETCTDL

Structure (SMILES)	IC50 (BChE; [1])	Selectivity for AChE (AChE; Table II)	IC50 (AChE; [3])	also measured
CCCCNC1CCCc2[nH]c(=O)ccc21 (racemic) [(±)-16, 5-n-Butylamino-5,6,7,8-tetrahydroquinolinone, bis-Hydrochloride, reference compound]	~500 µM	·1	–	inhibition at 500 µM (BChE; [2]): ~50%; IC50 (AChE): ~500 µM; inhibition at 500 µM (AChE; [2]): ~50%
O=c1ccc2c([nH]1)CCCC2NCCCCNC1CCCc2[nH]c(=O)ccc21 (racemic) [rac-lmeso-13a]	115 µM	2.7	42.3 µM	–
O=c1ccc2c([nH]1)CCCC2NCCCCCNC1CCCc2[nH]c(=O)ccc21 (racemic) [rac-lmeso-13b]	–	9.1	10.5 µM	–
O=c1ccc2c([nH]1)CCCC2NCCCCCCNC1CCCc2[nH]c(=O)ccc21 (racemic) [rac-lmeso-13c]	98.8 µM	26.3	3.76 µM	–
O=c1ccc2c([nH]1)CCCC2NCCCCCCCNC1CCCc2[nH]c(=O)ccc21 (racemic) [rac-lmeso-13d, rac-/meso-N′,N′-Di-5′-(5′,6′,7′,8′-Tetrahydroquinolin-2-onyl)-1,7-diaminoheptane, bis-Hydrochloride Salt]	34.6 µM	28.0	1.24 µM	–
O=c1ccc2c([nH]1)CCCC2NCCCCCCCCNC1CCCc2[nH]c(=O)ccc21 (racemic) [rac-lmeso-13e]	10.2 µM	8.7	1.17 µM	–
O=c1ccc2c([nH]1)CCCC2NCCCCCCCCCNC1CCCc2[nH]c(=O)ccc21 (racemic) [rac-lmeso-13f]	–	30.3	0.356 ± 0.007 µM	–
O=c1ccc2c([nH]1)CCCC2NCCCCCCCCCCNC1CCCc2[nH]c(=O)ccc21 (racemic) [rac-lmeso-13g]	5.45 µM	–	–	–
O=c1ccc2c([nH]1)CCCC2NCCCCCCCCCCCCNC1CCCc2[nH]c(=O)ccc21 (racemic) [rac-lmeso-13i]	24.4 µM	–	–	–
CC1(C)Cc2[nH]c(=O)ccc2C(NCCCCCCCNC2CC(C)(C)Cc3[nH]c(=O)ccc32)C1 (racemic) [rac-lmeso-14d, rac-/meso-N,N′-Di-5′-(7′,7′-Dimethyl-5′,6′,7′,8′-tetrahydroquinolin-2-onyl)-1,7-diaminoheptane, bis-Fumaric Acid Salt]	190 µM	10	18.3 µM	–
CC1(C)Cc2[nH]c(=O)ccc2C(NCCCCCCCCCNC2CC(C)(C)Cc3[nH]c(=O)ccc32)C1 (racemic) [rac-lmeso-14f]	104 µM	8.8	11.8 µM	–
CC1(C)Cc2[nH]c(=O)ccc2C(NCCCCCCCCCCNC2CC(C)(C)Cc3[nH]c(=O)ccc32)C1 (racemic) [rac-lmeso-14g]	–	17	6.11 µM	–
CC1(C)Cc2[nH]c(=O)ccc2C(NCCCCCCCCCCCCNC2CC(C)(C)Cc3[nH]c(=O)ccc32)C1 (racemic) [rac-lmeso-14i]	–	17	3.62 µM	–
Cn1c2c(ccc1=O)C(NCCCCCCCCCCNC1CCCc3c1ccc(=O)n3C)CCC2 (racemic) [rac-lmeso-15g, rac/meso-N,N′-di-5′-(5′,6′,7′,8′-Tetrahydro-1′-methyl-quinolinolyl)-1,10-diaminodecane, bis-Fumaric Acid]	–	180	0.438 ± 0.029 µM	–
COc1ccc2c(n1)CCCC2NCCCCCCCCCCNC1CCCc2nc(OC)ccc21 (racemic) [rac-lmeso-17g, rac-/meso-N,N′-di-5′-(5′,6′,7′,8′-Tetrahydro-2′-methoxy-quinolinyl)-1,10-diaminodecane, bis-Fumaric Acid]	34.6 µM	7.6	4.53 µM	–
COc1ccc2c(n1)CCCC2NCCCCCCCCCCCCNC1CCCc2nc(OC)ccc21 (racemic) [rac-lmeso-17i]	78.9 µM	15.8	5 µM	fold increase in AChE IC50 relative to rac-/meso-13i (AChE): 31 fold
CC1(NCCCCCCCCCCNC2(C)CCCc3[nH]c(=O)ccc32)CCCc2[nH]c(=O)ccc21 (racemic) [rac-lmeso-19g, rac-/meso-N,N′-di-5′-(5′,6′,7′,8′-Tetrahydro-5′-methylquinolinonyl)-1,10-diaminodecane, Fumaric Acid Salt]	–	6.6	1.86 µM	fold less potent than 13 g (AChE; AChE potency): 8 fold
O=c1ccc2c([nH]1)CCC[C@H]2NCCCCCCCCCCCCN[C@@H]1CCCc2[nH]c(=O)ccc21 [(R,R)-(+)-13i]	–	–	–	IC50 (BChE; [4]): 297 µM
O=c1ccc2c([nH]1)CCC[C@@H]2NCCCCCCCCCCN[C@H]1CCCc2[nH]c(=O)ccc21 [(S,S)-(−)-13g]	–	–	–	IC50 (BChE; [4]): 1.82 µM
O=c1ccc2c([nH]1)CCC[C@@H]2NCCCCCCCCCCCN[C@H]1CCCc2[nH]c(=O)ccc21 [(S,S)-(−)-13h]	–	–	–	IC50 (BChE; [4]): 1.16 µM; Selectivity for AChE (AChE; Table III): 13.8; IC50 (AChE; [5]): 0.084 ± 0.005 µM
O=c1ccc2c([nH]1)CCC[C@@H]2NCCCCCCCCCCCCN[C@H]1CCCc2[nH]c(=O)ccc21 [(S,S)-(−)-13i, (S,S)-(−)-N,N′-di-5′-(5′,6′,7′,8′-Tetrahydroquinolin-2-onyl)-1,12-diaminododecane, bis-Hydrochloride Salt]	–	–	–	IC50 (BChE; [4]): 9.6 µM
O=c1ccc2c([nH]1)CCC[C@@H]2NCCCCCCCCCCCCCN[C@H]1CCCc2[nH]c(=O)ccc21 [(S,S)-(−)-13j]	–	–	–	IC50 (BChE; [4]): 16.7 µM; Selectivity for AChE (AChE; Table III): 321; IC50 (AChE; [5]): 0.052 ± 0.009 µM
O=c1ccc2c([nH]1)CCC[C@@H]2NCCCCCCCCCCCCCCN[C@H]1CCCc2[nH]c(=O)ccc21 [(S,S)-(−)-13k]	–	–	–	IC50 (BChE; [4]): 59.5 µM; Selectivity for AChE (AChE; Table III): 248; IC50 (AChE; [5]): 0.24 ± 0.05 µM
